Legend:
[1] = test system: spinal cord motor neurons; assay: Spinal motor neuron survival (ChAT) in G93A-SOD1 mice, treatment from disease onset (day 80); format: in vivo, mouse; details: 20 mg/kg/day from day 80; days 90-120
Protocol: FIG. 34A and FIG. 34B. P7C3A20 and P7C3 block motor neuron cell death in the spinal cord when administered at the time of disease onset to G93A-SOD1 mutant mice. Treatment of G93A-SOD1 mutant mice with 20 mg/kg/d of P7C3A20, P7C3 or Dimebon, or the appropriate vehicle, was initiated on day 80. Five mice from each group were sacrificed on days 90, 100, 110 and 120. The number of spinal cord motor neurons per cubic millimeter of lumbar spinal cord was determined through immunohistochemical staining for ChAT and quantification with NIH Image J software. All images were analyzed blind to treatment group. Spinal cord motor neurons in G93A-SOD1 mutant mice died over time as expected. Spinal cord motor neuron cell death was blocked by administration of P7C3A20. P7C3 was intermediately protective, while Dimebon had no neuroprotective efficacy. (FIG. 34A) Representative staining of ChAT of one ventral horn from each of the 5 mice in each treatment group at 110 days. (FIG. 34B) Graph representation.
Based on the promising results of early (day 40) administration of P7C3 to G93A-SOD1 mutant mice, we next sought to determine whether P7C3A20, P7C3 or Dimebon could protect ventral horn spinal motor neurons when administered at the expected time of disease onset (day 80). We initiated administration of either P7C3, P7C3A20 or Dimebon, each at a dose of 20 mg/kg/day, and analyzed motor neuron cell survival by staining lumbar spinal sections for choline acetyltransferase (ChAT). ChAT, the enzyme that synthesizes the neurotransmitter acetylcholine, serves as a marker for spinal cord motor neurons. All sections were counted blind to treatment group in order to quantify motor neuron survival, and five mice for each treatment group were analyzed at 90, 100, 110 and 120 days. Each treatment group was compared to its own sibling-matched group that received the corresponding vehicle. […]

[2] = test system: G93A-SOD1 mutant mice; assay: Walking gait (pawprint analysis) in G93A-SOD1 mice, treatment from day 80; format: in vivo, mouse; details: 20 mg/kg/day from day 80
Protocol: FIG. 36A and FIG. 36B. P7C3A20 preserves walking gait when administered at the time of disease onset to G93A-SOD1 mutant mice. […] Front and back stride were collected as a straight line from back paw print to the following paw print. Back-front distance was collected as a straight line from back paw print to the corresponding front paw print. 20 measurements (10 on each side) for each parameter were measured per mouse, and 20 mice per group were evaluated at 90 and 118 day time points. All measurements were conducted blind to treatment group, and the student's t test was used for statistical comparison of a treatment group to its matched vehicle group. FIG. 36B—At 90 days, there were no differences between any groups in back stride, front stride and back-front distance. […] Back stride and front stride were preserved to near-normal levels in P7C3A20 treated mice on day 118. By day 132, P7C3 and Dimebon treated mice were too sick to participate in the task. At this time point, P7C3A20 treated mice continued to show normalized back stride and front stride levels.
Analysis of walking gait offers a second means of assessing motor limb strength and coordination in rodent models of ALS. We conducted this analysis in the same mice used for the accelerating rotarod task, at three time points: 90, 118 and 132 days. Briefly, the front paws of each test mouse were dipped in orange tempera paint, and the back paws in blue tempera paint. […] Key parameters of the pawprints were then manually measured, as described in Methods. […]
Five measurements were taken: front and back stride, front and back width, and front to back distance, as described in Current Protocols for Neuroscience. […] Width from paw print was measured by drawing a line at a 90 degree angle from the line connecting the stride previous and the paw being analyzed. The distance was recorded as length of line from paw to the stride line opposite the paw print. […]
Pawprints were recorded at 90, 118 and 132 days of age. […]

Row | Structure (SMILES) | spinal motor neuron cell death [1] | walking gait (back stride, front stride, back-front distance) [2]
1 | Cc1ccc2c(c1)c1c(n2CCc2ccc(C)nc2)CCN(C)C1 [Dimebon, 2,3,4,5-Tetrahydro-2,8-dimethyl-5-(2-(6-methyl-3-pyridyl)ethyl)-1H-pyrido(4,3-b)indole, reference compound] | indistinguishable from vehicle treatment groups | none of these parameters in the walking gait analysis at 20 mg/kg/day were significantly improved
2 | COc1cccc(NCC(F)Cn2c3ccc(Br)cc3c3cc(Br)ccc32)c1 (stereo not drawn) [Example P7C3A20, N-(3-(3,6-dibromo-9H-carbazol-9-yl)-2-fluoropropyl)-3-methoxyaniline] | provided significant protection from spinal motor neuron cell death | helps preserve walking gait
3 | OC(CNc1ccccc1)Cn1c2ccc(Br)cc2c2cc(Br)ccc21 (stereo not drawn) [Example P7C3] | provided intermediate protection on days 100 (p=0.048) and 110 (p=0.01) | none of these parameters in the walking gait analysis at 20 mg/kg/day were significantly improved
